Laboratory results taken from ChEMBL document CHEMBL1137410, “Using fragment cocktail crystallography to assist inhibitor design of Trypanosoma brucei nucleoside 2-deoxyribosyltransferase” (2006).

System: Trypanosoma brucei brucei
Experiment: Inhibition of Trypanosoma brucei brucei growth
Assay type: functional
Conditions: read-out: ED50 (the source's name)

Row | EC50 | Compound
1 | 413 µM | Cn1c(=O)ccc2ccccc21
2 | 252 µM | Nc1cccc2cnccc12
3 | 1340 µM | CCc1ccccc1CO
